What all share (assay type): biochemical
One test addresses TXK (Homo sapiens (Human), UniProt P42681). Kind of test: IC50 against TXK. Conditions: for TXK/ITK: ratio of TXK IC50 to ITK IC50.
The target of another test is BTK (Homo sapiens (Human), UniProt Q06187). Description: IC50 against BTK.
The target of another test is JAK3 (Homo sapiens (Human), UniProt P52333). Description: IC50 against JAK3.
A further test addresses ITK (Homo sapiens (Human), UniProt Q08881). Description: IC50 against ITK.

Sequence of ITK (Q08881 whole entry): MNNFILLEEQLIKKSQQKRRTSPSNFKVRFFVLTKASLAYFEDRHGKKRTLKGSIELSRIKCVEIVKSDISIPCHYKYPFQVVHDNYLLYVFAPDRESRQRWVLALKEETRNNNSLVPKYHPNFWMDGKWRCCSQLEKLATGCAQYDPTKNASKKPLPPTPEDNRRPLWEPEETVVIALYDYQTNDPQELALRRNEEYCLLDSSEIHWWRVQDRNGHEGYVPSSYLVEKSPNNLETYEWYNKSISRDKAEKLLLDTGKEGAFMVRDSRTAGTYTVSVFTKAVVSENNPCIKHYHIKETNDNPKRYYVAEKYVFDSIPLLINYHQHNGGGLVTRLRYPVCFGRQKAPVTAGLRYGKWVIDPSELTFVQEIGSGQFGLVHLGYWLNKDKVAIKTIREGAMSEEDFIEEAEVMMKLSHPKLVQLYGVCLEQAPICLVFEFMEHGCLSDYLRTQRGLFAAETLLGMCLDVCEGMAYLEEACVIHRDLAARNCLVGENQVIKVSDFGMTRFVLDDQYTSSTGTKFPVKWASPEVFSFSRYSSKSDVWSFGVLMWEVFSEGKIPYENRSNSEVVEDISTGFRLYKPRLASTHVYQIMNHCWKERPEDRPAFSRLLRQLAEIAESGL
Sequence of TXK (P42681 whole entry, species assumed): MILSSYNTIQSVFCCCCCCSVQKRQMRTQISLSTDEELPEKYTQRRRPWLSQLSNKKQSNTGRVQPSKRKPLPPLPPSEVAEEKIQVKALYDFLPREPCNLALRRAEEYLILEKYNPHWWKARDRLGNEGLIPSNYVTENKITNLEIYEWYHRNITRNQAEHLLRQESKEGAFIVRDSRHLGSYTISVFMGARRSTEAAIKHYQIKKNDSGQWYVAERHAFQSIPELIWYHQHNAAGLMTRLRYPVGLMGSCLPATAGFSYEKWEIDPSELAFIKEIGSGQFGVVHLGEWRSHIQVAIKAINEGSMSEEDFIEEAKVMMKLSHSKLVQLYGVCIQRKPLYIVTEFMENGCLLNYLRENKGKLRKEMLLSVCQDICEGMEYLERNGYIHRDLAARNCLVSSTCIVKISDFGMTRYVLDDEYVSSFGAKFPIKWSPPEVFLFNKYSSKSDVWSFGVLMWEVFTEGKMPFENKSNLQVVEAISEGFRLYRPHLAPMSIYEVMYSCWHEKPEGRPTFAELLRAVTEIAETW
Sequence of BTK (Q06187 whole entry, species assumed): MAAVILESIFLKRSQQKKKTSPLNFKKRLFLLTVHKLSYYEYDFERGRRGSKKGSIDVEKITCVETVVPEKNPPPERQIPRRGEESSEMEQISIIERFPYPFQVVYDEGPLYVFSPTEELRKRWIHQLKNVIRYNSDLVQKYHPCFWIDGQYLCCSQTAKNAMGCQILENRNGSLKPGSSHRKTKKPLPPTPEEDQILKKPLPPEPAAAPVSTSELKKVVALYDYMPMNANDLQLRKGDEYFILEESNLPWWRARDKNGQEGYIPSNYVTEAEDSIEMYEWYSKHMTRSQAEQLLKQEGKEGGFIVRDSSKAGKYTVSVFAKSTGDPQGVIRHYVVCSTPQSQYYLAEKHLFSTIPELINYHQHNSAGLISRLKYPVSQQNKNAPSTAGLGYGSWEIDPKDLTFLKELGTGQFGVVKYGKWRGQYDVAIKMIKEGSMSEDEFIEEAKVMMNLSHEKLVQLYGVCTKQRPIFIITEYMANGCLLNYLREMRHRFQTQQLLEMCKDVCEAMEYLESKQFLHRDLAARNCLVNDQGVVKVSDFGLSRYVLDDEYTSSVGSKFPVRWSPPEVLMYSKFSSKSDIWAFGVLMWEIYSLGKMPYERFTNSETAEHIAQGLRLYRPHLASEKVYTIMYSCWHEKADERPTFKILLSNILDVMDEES
Sequence of JAK3 (P52333 whole entry, species assumed): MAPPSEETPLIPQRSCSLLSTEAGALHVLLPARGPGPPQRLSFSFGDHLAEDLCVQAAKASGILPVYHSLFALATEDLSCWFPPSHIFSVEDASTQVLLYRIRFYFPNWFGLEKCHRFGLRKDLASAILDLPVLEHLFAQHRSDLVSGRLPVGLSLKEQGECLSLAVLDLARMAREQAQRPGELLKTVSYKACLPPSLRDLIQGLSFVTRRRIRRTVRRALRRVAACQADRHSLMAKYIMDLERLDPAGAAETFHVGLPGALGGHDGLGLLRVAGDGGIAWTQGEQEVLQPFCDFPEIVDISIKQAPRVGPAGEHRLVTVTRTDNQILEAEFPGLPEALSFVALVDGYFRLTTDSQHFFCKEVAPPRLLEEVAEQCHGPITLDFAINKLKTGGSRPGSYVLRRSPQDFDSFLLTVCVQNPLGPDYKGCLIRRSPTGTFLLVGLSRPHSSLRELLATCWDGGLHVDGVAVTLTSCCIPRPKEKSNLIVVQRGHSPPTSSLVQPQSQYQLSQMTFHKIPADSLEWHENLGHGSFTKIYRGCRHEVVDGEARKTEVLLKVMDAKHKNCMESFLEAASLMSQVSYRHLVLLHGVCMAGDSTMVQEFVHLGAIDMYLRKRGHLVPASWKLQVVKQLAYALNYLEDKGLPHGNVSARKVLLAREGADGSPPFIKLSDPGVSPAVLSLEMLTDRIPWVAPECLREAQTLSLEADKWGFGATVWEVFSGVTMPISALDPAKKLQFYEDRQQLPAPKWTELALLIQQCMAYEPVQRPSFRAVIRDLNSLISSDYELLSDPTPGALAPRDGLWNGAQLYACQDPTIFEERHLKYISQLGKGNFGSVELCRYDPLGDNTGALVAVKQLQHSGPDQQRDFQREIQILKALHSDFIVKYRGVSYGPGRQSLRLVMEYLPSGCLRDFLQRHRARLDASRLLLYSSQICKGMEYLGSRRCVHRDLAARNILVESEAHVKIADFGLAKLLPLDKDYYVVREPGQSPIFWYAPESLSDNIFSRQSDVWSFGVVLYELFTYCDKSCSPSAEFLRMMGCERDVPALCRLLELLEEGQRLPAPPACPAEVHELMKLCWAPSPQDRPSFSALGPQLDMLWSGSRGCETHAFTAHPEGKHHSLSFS

Regarding `C=CC(=O)N1CCN(C(=O)c2cc(Sc3cnc(Nc4ccccn4)s3)c(C)cc2OC)C[C@H]1C#N` [Compound 153, (S)-1-acryloyl-4-(2-methoxy-4-methyl-5-((2-(pyridin-2-ylamino)thiazol-5-yl)thio)benzoyl)piperazine-2-carbonitrile], the TXK/ITK at TXK came out at 0.61. For the same compound, the IC50 against BTK, against JAK3 and at ITK was under 10 nM throughout.
Consider `C=CC(=O)N1CCN(C(=O)c2cc(Sc3cnc(NC(=O)c4cccnc4)s3)c(C)cc2OC)CC1` [Compound 89], for which the IC50 was 100 to 1000 nM at TXK, 100 to 1000 nM at BTK, 1000 to 10000 nM against JAK3 and under 10 nM at ITK. On TXK, the TXK/ITK stood at 45.743.
As for `C=CC(=O)N1CCN(C(=O)c2cc(Sc3cnc(NC(=O)c4cn(C)cn4)s3)c(C)cc2OC)CC1` [Compound 97], the IC50 was 100 to 1000 nM on TXK, 100 to 1000 nM at BTK, 1000 to 10000 nM against JAK3 and under 10 nM at ITK. On TXK, the TXK/ITK stood at 12.995.
For `C=CC(=O)N1CCCN(C(=O)c2cc(Sc3cnc(NC(=O)c4cnsc4)s3)c(C)cc2OC)C[C@H]1C` [Compound 93], the IC50 at TXK is 100 to 1000 nM; against BTK it was 1000 to 10000 nM; against JAK3, at least 10000 nM; against ITK it was under 10 nM. Also, at TXK, the TXK/ITK is 252.91.
On to `C=CC(=O)N1CCN(C(=O)c2cc(Sc3cnc(NC(C)=O)s3)c(C)cc2OC)C[C@H]1C` [Compound 11], for which the half-inhibitory concentration (IC50) was 100 to 1000 nM against TXK, 1000 to 10000 nM on BTK, 1000 to 10000 nM at JAK3 and under 10 nM against ITK. In addition, the TXK/ITK on TXK was determined as 25.051.
Regarding `C=CC(=O)N1CCCN(C(=O)c2cc(Sc3cnc(NC(=O)c4ccsc4)s3)c(C)cc2C)C[C@H]1CC` [Compound 122], the IC50 against TXK was 100 to 1000 nM; against BTK, 100 to 1000 nM; against JAK3, 100 to 1000 nM; on ITK, under 10 nM. For the same compound, at TXK, the TXK/ITK was determined as 118.5.
Turning to `C=CC(=O)N1CCN(C(=O)c2cc(Sc3cnc(NC(=O)C4CCC4)s3)c(C)cc2OC)CC1` [Compound 84], the IC50 at TXK is 10 to 100 nM; at BTK it was 1000 to 10000 nM; at JAK3, 1000 to 10000 nM; on ITK it was under 10 nM. Also, the TXK/ITK at TXK worked out at 21.948.
Regarding `C=CC(=O)N1CCN(C(=O)c2cc(Sc3cnc(NC(=O)c4ccc(CN(C)C)cc4)s3)c(C)cc2OC)CC1` [Compound 34], the IC50 at TXK was 10 to 100 nM; on BTK it was 10 to 100 nM; against JAK3 it was 100 to 1000 nM; against ITK, under 10 nM. Besides, at TXK, the TXK/ITK came to 33.121.
Regarding `C=CC(=O)N1CCN(C(=O)c2cc(Sc3cnc(NC(=O)c4cccc(CN(C)C)c4)s3)c(C)cc2OC)C[C@H]1CC` [Compound 117], the IC50 on TXK is 10 to 100 nM; against BTK it was 100 to 1000 nM; at JAK3 it was 1000 to 10000 nM; against ITK it was under 10 nM. Also, the TXK/ITK on TXK was 65.5.
The like results for `C=CC(=O)N1C[C@@H]2C[C@H]1CN2C(=O)c1cc(Sc2cnc(NC(=O)C3CC3)s2)c(C)cc1OC` [Compound 23] were, in that order, under 10 nM, under 10 nM, 10 to 100 nM, under 10 nM and 1.4139.
The like results for `C=CC(=O)N1CCN(C(=O)c2cc(Sc3cnc(NC(=O)C4CC4)s3)c(C)cn2)CC1` [Compound 76] were, in that order, at least 10000 nM, at least 10000 nM, at least 10000 nM, at least 10000 nM and 1.
For `C=CC(=O)N1CCN(C(=O)c2cc(Sc3cnc(NC(=O)c4ccc(N5CCN(C(=O)CCOCCOCCOCCOCCNC(=O)CCCCC6SCC7NC(=O)NC76)CC5)cc4)s3)c(C)cc2OC)CC1` (centres unmarked) [Compound 41] the same measures were 10 to 100 nM, 10 to 100 nM, 10 to 100 nM, under 10 nM and 21.91.
Take `C=CC(=O)N1CCN(C(=O)c2cc(Sc3cnc(NC(=O)c4ccccn4)s3)c(C)cc2OC)CC1` [Compound 95]: the IC50 was 100 to 1000 nM at TXK, 100 to 1000 nM at BTK, 1000 to 10000 nM on JAK3 and 10 to 100 nM against ITK. Also, on TXK, the TXK/ITK came out at 14.201.
As to `C=CC(=O)N1CC[C@H](N(C)C(=O)c2cc(Sc3cnc(NC(=O)C4CC4)s3)c(C)cc2OC)C1` [Compound 29], the IC50 against TXK is under 10 nM; on BTK it was 100 to 1000 nM; at JAK3, 100 to 1000 nM; at ITK it was under 10 nM. Besides, the TXK/ITK at TXK was 2.1804.
For the compound `C=CC(=O)N1CCN(C(=O)c2cc(Sc3cnc(NC(=O)C4CC4)s3)c(C)cc2OC)C[C@@H]1C` [Compound 22], the IC50 was 10 to 100 nM against TXK, 100 to 1000 nM against BTK, 100 to 1000 nM against JAK3 and under 10 nM at ITK. For the same compound, the TXK/ITK at TXK is on record as 6.7674.
As to `C=CC(=O)N1CCN(C(=O)c2cc(Sc3cnc(NC(=O)C4CC4)s3)c(C)cc2CC)CC1` [Compound 106], the IC50 against TXK is under 10 nM; against BTK, 10 to 100 nM; against JAK3 it was 10 to 100 nM; against ITK it was under 10 nM. In addition, the TXK/ITK at TXK is listed as 2.9.
For the compound `C=CC(=O)N1CCCN(C(=O)c2cc(Sc3cnc(NC(=O)C4CC4)s3)c(C)cc2OC)C[C@H]1CC` [Compound 111], the IC50 was 100 to 1000 nM against TXK, 100 to 1000 nM at BTK, 1000 to 10000 nM at JAK3 and under 10 nM on ITK. Further, at TXK, the TXK/ITK stood at 81.1.
With `C=CC(=O)N1CCN(C(=O)c2cc(Sc3cnc(NC(=O)C4CC4)s3)c(C)cc2OC)C(C)(C)C1` [Compound 15], the IC50 was under 10 nM against TXK, under 10 nM against BTK, 10 to 100 nM at JAK3 and under 10 nM on ITK. Also, the TXK/ITK at TXK was found to be 1.1111.
With `C=CC(=O)N1CCN(C(=O)c2cc(Sc3cnc(NC(C)=O)s3)c(C)cc2C)C[C@H]1C#N` [Compound 119], the IC50 at TXK was under 10 nM; at BTK, 10 to 100 nM; against JAK3, under 10 nM; against ITK it was under 10 nM. For the same compound, on TXK, the TXK/ITK is 3.2.
Consider `C=CC(=O)N1CCN(C(=O)c2cc(Sc3cnc(NC(=O)c4ccn(C)c4)s3)c(C)cc2OC)C[C@H]1CC` [Compound 132], for which the IC50 was 10 to 100 nM at TXK, 100 to 1000 nM against BTK, 100 to 1000 nM on JAK3 and under 10 nM on ITK.
On to `C=CC(=O)N1CCN(C(=O)c2cc(Sc3cnc(NC(=O)C4CC4)s3)c(C)cc2OC)C[C@H]1C#N` [Compound 43], for which the IC50 at TXK is under 10 nM; against BTK, 10 to 100 nM; against JAK3 it was 10 to 100 nM; on ITK, under 10 nM. In addition, the TXK/ITK at TXK is recorded as 3.4821.
As for `C=CC(=O)N1CCCN(C(=O)c2cc(Sc3cnc(NC(=O)CC)s3)c(C)cc2OC)C[C@H]1C` [Compound 47], the IC50 against TXK is at least 10000 nM; on BTK, at least 10000 nM; against JAK3, at least 10000 nM; at ITK it was 10 to 100 nM. Besides, the TXK/ITK at TXK is reported as 181.42.
On to `COc1cc(C)c(Sc2cnc(NC(=O)C3CC3)s2)cc1C(=O)N1CCCN(C(=O)/C=C/CN(C)C)[C@H](C)C1` [Compound 94], for which the IC50 against TXK was at least 10000 nM; at BTK, at least 10000 nM; against JAK3, at least 10000 nM; against ITK it was 100 to 1000 nM. Also, the TXK/ITK at TXK was 61.81.

The values above are taken from patent publication US11008314B2, “Compounds and methods for modulating interleukin-2-inducible t-cell kinase” (CORVUS PHARMACEUTICALS, INC., priority 2016, dated 2021).
